Measured values reported in PubChem BioAssay (NCI).
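Interpolation was linear, between the two tested concentrations surrounding the appropriate level; five concentrations were tested over 48 hours in 96-well plates. TGI denotes the concentration required for complete inhibition of growth.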

What was measured:
Experiment in all cases: NCI tumour cell line growth inhibition, 48 h
MDA-N = tested on: MDA-N
RPMI-8226 leukemia = tested on: RPMI-8226 leukemia
SK-OV-3 ovarian = tested on: SK-OV-3 ovarian
HCT-15 colon = tested on: HCT-15 colon
786-0 renal = tested on: 786-0 renal
UACC-62 melanoma = tested on: UACC-62 melanoma
NCI-H522 lung = tested on: NCI-H522 lung
SF-539 CNS = tested on: SF-539 CNS
SNB-19 CNS = tested on: SNB-19 CNS
OVCAR-5 ovarian = tested on: OVCAR-5 ovarian
A498 renal = tested on: A498 renal
SF-295 CNS = tested on: SF-295 CNS
MCF7 breast = tested on: MCF7 breast
OVCAR-4 ovarian = tested on: OVCAR-4 ovarian
K-562 leukemia = tested on: K-562 leukemia
MDA-MB-435 = tested on: MDA-MB-435
SK-MEL-2 melanoma = tested on: SK-MEL-2 melanoma
HL-60(TB) leukemia = tested on: HL-60(TB) leukemia
CCRF-CEM leukemia = tested on: CCRF-CEM leukemia
M14 melanoma = tested on: M14 melanoma
OVCAR-3 ovarian = tested on: OVCAR-3 ovarian
SW-620 colon = tested on: SW-620 colon
HCT-116 colon = tested on: HCT-116 colon
UACC-257 melanoma = tested on: UACC-257 melanoma
MOLT-4 leukemia = tested on: MOLT-4 leukemia
T-47D breast = tested on: T-47D breast
BT-549 breast = tested on: BT-549 breast
NCI-H226 lung = tested on: NCI-H226 lung
DU-145 prostate = tested on: DU-145 prostate
KM12 colon = tested on: KM12 colon
A549 NSCLC = tested on: A549 NSCLC
EKVX NSCLC = tested on: EKVX NSCLC
CAKI-1 renal = tested on: CAKI-1 renal
MDA-MB-231 breast = tested on: MDA-MB-231 breast
MALME-3M melanoma = tested on: MALME-3M melanoma
HS 578T breast = tested on: HS 578T breast
PC-3 prostate = tested on: PC-3 prostate
TK-10 renal = tested on: TK-10 renal
HT29 colon = tested on: HT29 colon
HCC-2998 colon = tested on: HCC-2998 colon
HOP-92 NSCLC = tested on: HOP-92 NSCLC
RXF 393 renal = tested on: RXF 393 renal
SR leukemia = tested on: SR leukemia
U251 CNS = tested on: U251 CNS
IGROV1 ovarian = tested on: IGROV1 ovarian
HOP-62 NSCLC = tested on: HOP-62 NSCLC
SF-268 CNS = tested on: SF-268 CNS
ACHN renal = tested on: ACHN renal
NCI/ADR-RES ovarian = tested on: NCI/ADR-RES ovarian
NCI-H23 lung = tested on: NCI-H23 lung
UO-31 renal = tested on: UO-31 renal
SNB-75 CNS = tested on: SNB-75 CNS
OVCAR-8 ovarian = tested on: OVCAR-8 ovarian
LOX IMVI melanoma = tested on: LOX IMVI melanoma
NCI-H460 lung = tested on: NCI-H460 lung
SN12C renal = tested on: SN12C renal
SK-MEL-28 melanoma = tested on: SK-MEL-28 melanoma
COLO 205 colon = tested on: COLO 205 colon

With CC1(C)[C@@H]2CC[C@@]1(C)C1(SS1=O)C21Cc2ccccc2C1 (stereo partly drawn) the TGI (MDA-N) was 35.5 µM, the TGI (RPMI-8226 leukemia) was 50.5 µM and the TGI (SK-OV-3 ovarian) was > 100 µM. The TGI (HCT-15 colon) was 63.7 µM, the TGI (786-0 renal) was 31.3 µM and the TGI (UACC-62 melanoma) was 70 µM. For the same molecule, the TGI (NCI-H522 lung) was 30.8 µM, the TGI (SF-539 CNS) was 72.3 µM and the TGI (SNB-19 CNS) was > 100 µM. For the same molecule, the TGI (OVCAR-5 ovarian) was 45.7 µM, the TGI (A498 renal) was 97.3 µM and the TGI (SF-295 CNS) was > 100 µM. For the same molecule, the TGI (MCF7 breast) was 63.9 µM, the TGI (OVCAR-4 ovarian) was 32 µM and the TGI (K-562 leukemia) was 51.6 µM. The TGI (MDA-MB-435) was 99 µM, the TGI (SK-MEL-2 melanoma) was 60.5 µM and the TGI (HL-60(TB) leukemia) was 42.5 µM. The TGI (CCRF-CEM leukemia) was 36.3 µM, the TGI (M14 melanoma) was > 100 µM and the TGI (OVCAR-3 ovarian) was > 100 µM. It also gave a TGI (SW-620 colon) of 36.1 µM, a TGI (HCT-116 colon) of 28.5 µM and a TGI (UACC-257 melanoma) of 55.9 µM. The TGI (MOLT-4 leukemia) was 58.4 µM, the TGI (T-47D breast) was 70.3 µM and the TGI (BT-549 breast) was 85.9 µM. The TGI (NCI-H226 lung) was > 100 µM, the TGI (DU-145 prostate) was 45.4 µM and the TGI (KM12 colon) was > 100 µM. The TGI (A549 NSCLC) was > 100 µM, the TGI (EKVX NSCLC) was 73 µM and the TGI (CAKI-1 renal) was 45.6 µM. For the same molecule, the TGI (MDA-MB-231 breast) was 34.9 µM, the TGI (MALME-3M melanoma) was > 100 µM and the TGI (HS 578T breast) was > 100 µM. The TGI (PC-3 prostate) was 41.7 µM, the TGI (TK-10 renal) was 38.7 µM and the TGI (HT29 colon) was 40.9 µM. For the same molecule, the TGI (HCC-2998 colon) was 36.9 µM, the TGI (HOP-92 NSCLC) was 67.5 µM and the TGI (RXF 393 renal) was 38.9 µM. The TGI (SR leukemia) was 54.5 µM, the TGI (U251 CNS) was 84.5 µM and the TGI (IGROV1 ovarian) was 37.2 µM. For the same molecule, the TGI (HOP-62 NSCLC) was > 100 µM, the TGI (SF-268 CNS) was > 100 µM and the TGI (ACHN renal) was 45.5 µM. The TGI (NCI/ADR-RES ovarian) was 67.5 µM, the TGI (NCI-H23 lung) was > 100 µM and the TGI (UO-31 renal) was 35.8 µM. The TGI (SNB-75 CNS) was > 100 µM, the TGI (OVCAR-8 ovarian) was 31 µM and the TGI (LOX IMVI melanoma) was 28.5 µM. It also gave a TGI (NCI-H460 lung) of 52.2 µM, a TGI (SN12C renal) of 35.8 µM and a TGI (SK-MEL-28 melanoma) of 54 µM. It also gave a TGI (COLO 205 colon) of 99 µM.
